This note sets out measurements from patent US8071590B2, “9-substituted-5-carboxy-oxadiazino-quinolone derivatives, their preparation and their application as anti-bacterials” (Vetoquinol SA, priority 2008, dated 2011).

What all share (format): cell-based
Experiment [1] deals with Mycoplasma bovis (Myc bov). Put plainly: microbe, parasite or virus in culture. To be noted: Mycoplasmopsis bovis, read-out: MIC Myc bov.
Experiment [2] relates to Mannheimia haemolytica, susceptible (Man hae s). Put plainly: MIC determination by microdilution in liquid medium. To be noted: susceptible strain. (Dilution methods test growth across graded concentrations, often in twofold steps.)
Experiment [3] concerns Streptococcus uberis (Str ube). Put plainly: microbe, parasite or virus in culture. To be noted: read-out: MIC Str ube.
Experiment [4] concerns Clostridium perfringens (Clo per). Put plainly: microbe, parasite or virus in culture. The note with it: read-out: MIC Clo per.
In experiment [5] the test system is Bordetella bronchiseptica (Bor bron). The experiment can be described thus: microbe, parasite or virus in culture. The note with it: read-out: MIC Bor bron.
Experiment [6] has as its system Staphylococcus aureus, resistant (Sta aur r). The experiment can be described thus: microbe, parasite or virus in culture. To be noted: read-out: MIC Sta aur r.
For experiment [7], the system named is Staphylococcus aureus, susceptible (Sta aur s). The experiment can be described thus: microbe, parasite or virus in culture. To be noted: read-out: MIC Sta aur s.
The subject of experiment [8] is Escherichia coli (E coli). The experiment can be described thus: microbe, parasite or virus in culture. The note with it: read-out: MIC E coli.
Experiment [9] deals with Pseudomonas aeruginosa, resistant (Pse aer r). Put plainly: microbe, parasite or virus in culture. To be noted: read-out: MIC Pse aer r.
The subject of experiment [10] is Mannheimia haemolytica, resistant (Man hae r). Put plainly: MIC determination by microdilution in liquid medium. The note with it: resistant strain.
The test system of experiment [11] is Pseudomonas aeruginosa, susceptible (Pse aer s). The experiment can be described thus: microbe, parasite or virus in culture. To be noted: read-out: MIC Pse aer s.

Molecules are shown by their SMILES. Values after ≈ are worked out from the molar mass of the structure shown. A value given as a limit tells only on which side of the number the result lay.

Take `CN1COc2c(N3CCN(C(=O)c4cccs4)CC3)c(F)cc3c(=O)c(C(=O)O)cn1c23` [Example 4, 8-Fluoro-3-methyl-6-oxo-9-[4-(thiophene-2-carbonyl)-piperazin-1-yl]-2,3-dihydro-6H-1-oxa-3,3a-diaza-phenalene-5-carboxylic acid]: the MIC stood at 0.5 µg/mL (≈ 1.09 µM) in experiment [1]; 0.25 µg/mL (≈ 0.545 µM) in experiment [2]; 0.5 µg/mL (≈ 1.09 µM) in experiment [3]; 0.25 µg/mL (≈ 0.545 µM) in experiment [4]; 2 µg/mL (≈ 4.36 µM) in experiment [5]; 4 µg/mL (≈ 8.72 µM) in [6]. Further, the MIC was 0.06 µg/mL (≈ 0.131 µM) in experiment [7] and > 1 µg/mL in experiment [8].
As to `Cc1ncsc1C(=O)N1CCN(c2c(F)cc3c(=O)c(C(=O)O)cn4c3c2OCN4C)CC1` [Example 3, 8-Fluoro-3-methyl-9-[4-(4-methyl-thiazole-5-carbonyl)-piperazin-1-yl]-6-oxo-2,3-dihydro-6H-1-oxa-3,3a-diaza-phenalene-5-carboxylic acid], the MIC in experiment [1] came out at 2 µg/mL (≈ 4.22 µM); in experiment [2], 0.5 µg/mL (≈ 1.06 µM); in experiment [3] it was 1 µg/mL (≈ 2.11 µM); in experiment [4] it was 0.5 µg/mL (≈ 1.06 µM); in experiment [5], 2 µg/mL (≈ 4.22 µM); in experiment [6], 16 µg/mL (≈ 33.8 µM). For the same compound, the values for the MIC in experiment [7] and in experiment [8] were 0.25 µg/mL (≈ 0.528 µM) and > 1 µg/mL, respectively.
As to `CN1COc2c(N3CCN(C(=O)c4cscn4)CC3)c(F)cc3c(=O)c(C(=O)O)cn1c23` [Example 2], the MIC was 1 µg/mL (≈ 2.18 µM) in experiment [1]; 0.25 µg/mL (≈ 0.544 µM) in experiment [2]; 2 µg/mL (≈ 4.35 µM) in experiment [3]; 0.25 µg/mL (≈ 0.544 µM) in experiment [4]; > 1 µg/mL in [5]; 8 µg/mL (≈ 17.4 µM) in [6]. The MIC is 0.12 µg/mL (≈ 0.261 µM) in experiment [7] and > 1 µg/mL in [8].
For the compound `CN1COc2c(N3CCN4CCCC4C3)c(F)cc3c(=O)c(C(=O)O)cn1c23` (stereo not shown) [Example 7, 8-Fluoro-9-(hexahydro-pyrrolo[1,2-a]pyrazin-2-yl)-3-methyl-6-oxo-2,3-dihydro-6H-1-oxa-3,3a-diaza-phenalene-5-carboxylic acid], the MIC turned out to be 1 µg/mL (≈ 2.57 µM) in experiment [1]; 0.03 µg/mL (≈ 0.0772 µM) in experiment [2]; 8 µg/mL (≈ 20.6 µM) in experiment [9]; 0.5 µg/mL (≈ 1.29 µM) in experiment [3]; 0.25 µg/mL (≈ 0.644 µM) in experiment [4]; 0.5 µg/mL (≈ 1.29 µM) in experiment [5]. Moreover, the MIC in experiment [10] came out at 4 µg/mL (≈ 10.3 µM); in [6], 16 µg/mL (≈ 41.2 µM); in [7], 0.25 µg/mL (≈ 0.644 µM); in experiment [8] it was 0.06 µg/mL (≈ 0.154 µM); in experiment [11], 1 µg/mL (≈ 2.57 µM).
`CN1COc2c(N3CCN4CCCCC4C3)c(F)cc3c(=O)c(C(=O)O)cn1c23` (stereo not shown) [Example 6, 8-Fluoro-3-methyl-9-(octahydro-pyrido[1,2-a]pyrazin-2-yl)-6-oxo-2,3-dihydro-6H-1-oxa-3,3a-diaza-phenalene-5-carboxylic acid]: the MIC in experiment [1] was 1 µg/mL (≈ 2.48 µM); in experiment [2], 0.06 µg/mL (≈ 0.149 µM); in experiment [9] it was 32 µg/mL (≈ 79.5 µM); in experiment [3], 1 µg/mL (≈ 2.48 µM); in experiment [4], 0.5 µg/mL (≈ 1.24 µM); in [5], 1 µg/mL (≈ 2.48 µM). In addition, the MIC in experiment [10] stood at 16 µg/mL (≈ 39.8 µM); in experiment [6], 16 µg/mL (≈ 39.8 µM); in experiment [7] it was 0.25 µg/mL (≈ 0.621 µM); in experiment [8], 0.12 µg/mL (≈ 0.298 µM); in [11] it was 2 µg/mL (≈ 4.97 µM).
In the case of `CN1COc2c(N3CCN(C(=O)c4cccn4C)CC3)c(F)cc3c(=O)c(C(=O)O)cn1c23` [Example 1, 8-Fluoro-3-methyl-9-[4-(1-methyl-1H-pyrrole-2-carbonyl)-piperazin-1-yl]-6-oxo-2,3-dihydro-6H-1-oxa-3,3a-diaza-phenalene-5-carboxylic acid], the MIC in experiment [1] was 0.5 µg/mL (≈ 1.1 µM); in [2], 1 µg/mL (≈ 2.2 µM); in experiment [3], 2 µg/mL (≈ 4.39 µM); in experiment [4], 0.5 µg/mL (≈ 1.1 µM); in [5], > 1 µg/mL; in [6] it was 16 µg/mL (≈ 35.1 µM). The MIC in experiment [7] was 0.25 µg/mL (≈ 0.549 µM); in [8], > 1 µg/mL.
Regarding `CN1COc2c(N3CCN4CCC[C@H]4C3)c(F)cc3c(=O)c(C(=O)O)cn1c23` [Example 8, 8-Fluoro-9-(S)-hexahydro-pyrrolo[1,2-a]pyrazin-2-yl-3-methyl-6-oxo-2,3-dihydro-6H-1-oxa-3,3a-diaza-phenalene-5-carboxylic acid], the MIC in [1] was 1 µg/mL (≈ 2.57 µM); in [2] it was 0.03 µg/mL (≈ 0.0772 µM); in [9], 8 µg/mL (≈ 20.6 µM); in experiment [3], 0.5 µg/mL (≈ 1.29 µM); in [4], 0.25 µg/mL (≈ 0.644 µM); in experiment [5], 0.5 µg/mL (≈ 1.29 µM). Besides, the MIC in experiment [10] stood at 8 µg/mL (≈ 20.6 µM); in experiment [6], 16 µg/mL (≈ 41.2 µM); in experiment [7], 0.25 µg/mL (≈ 0.644 µM); in experiment [8] it was 0.03 µg/mL (≈ 0.0772 µM); in experiment [11] it was 0.5 µg/mL (≈ 1.29 µM).
Regarding `CN1COc2c(N3CCN4CCC[C@@H]4C3)c(F)cc3c(=O)c(C(=O)O)cn1c23` [Example 9, 8-Fluoro-9-(R)-hexahydro-pyrrolo[1,2-a]pyrazin-2-yl-3-methyl-6-oxo-2,3-dihydro-6H-1-oxa-3,3a-diaza-phenalene-5-carboxylic acid], the MIC in [1] is 0.5 µg/mL (≈ 1.29 µM); in experiment [2], 0.03 µg/mL (≈ 0.0772 µM); in experiment [9], 8 µg/mL (≈ 20.6 µM); in experiment [3] it was 0.5 µg/mL (≈ 1.29 µM); in experiment [4], 0.5 µg/mL (≈ 1.29 µM); in experiment [5], 0.25 µg/mL (≈ 0.644 µM). In addition, the MIC in experiment [10] is 4 µg/mL (≈ 10.3 µM); in [6], 8 µg/mL (≈ 20.6 µM); in [7] it was 0.12 µg/mL (≈ 0.309 µM); in experiment [8], 0.03 µg/mL (≈ 0.0772 µM); in experiment [11], 0.5 µg/mL (≈ 1.29 µM).
Regarding `CN1COc2c(N3CCN(C(=O)c4ccco4)CC3)c(F)cc3c(=O)c(C(=O)O)cn1c23` [Example 5, 8-Fluoro-9-[4-(furan-2-carbonyl)-piperazin-1-yl]-3-methyl-6-oxo-Z 3-dihydro-6H-1-oxa-3,3a-diaza-phenalene-5-carboxylic acid], the MIC in [1] is 0.5 µg/mL (≈ 1.13 µM); in [2], 0.25 µg/mL (≈ 0.565 µM); in experiment [3], 1 µg/mL (≈ 2.26 µM); in experiment [4], < 0.03 µg/mL; in experiment [5], > 1 µg/mL; in [6], 4 µg/mL (≈ 9.04 µM). Besides, the MIC is 0.06 µg/mL (≈ 0.136 µM) in experiment [7], 1 µg/mL (≈ 2.26 µM) in experiment [8] and > 1 µg/mL in [11].
